In the supplement of paper PMC10307832:

Experiments:
Assay in all cases: relative viability (nuclei count vs DMSO), 5 days (fraction); higher = more cells survive
NCI-H2228 = tested on: NCI-H2228
How it was run: (§1)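 One day after seeding in 1536-well plates, lung cancer cell lines were dosed by pin tool. Dosing was either single-drug or a fixed anchor-drug dose plus five library-drug doses (not always all listed) in √10 steps. After 5 days, nuclei were stained in one fix-and-stain step and counted on 4× images, and relative viability is the nuclei count of treated wells over that of vehicle wells, given as the median of duplicate plates.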

UMC-11 = tested on: UMC-11
How it was run: as §1

LC-2-ad = tested on: LC-2-ad
How it was run: as §1

ABC-1 = tested on: ABC-1
How it was run: as §1

NCI-H1755 = tested on: NCI-H1755
How it was run: as §1

NCI-H1651 = tested on: NCI-H1651
How it was run: as §1

NCI-H3122 = tested on: NCI-H3122
How it was run: as §1

LU99A = tested on: LU99A
How it was run: as §1

CAL-12T = tested on: CAL-12T
How it was run: as §1

NCI-H2405 = tested on: NCI-H2405
How it was run: as §1

NCI-H2087 = tested on: NCI-H2087
How it was run: as §1

ChaGo-K-1 = tested on: ChaGo-K-1
How it was run: as §1

RERF-LC-KJ = tested on: RERF-LC-KJ
How it was run: as §1

NCI-H460 = tested on: NCI-H460
How it was run: as §1

HCC-78 = tested on: HCC-78
How it was run: as §1

PC-3 [JPC-3] = tested on: PC-3 [JPC-3]
How it was run: as §1

LOU-NH91 = tested on: LOU-NH91
How it was run: as §1

HCC-366 = tested on: HCC-366
How it was run: as §1

SMILES: Nc1ccn([C@@H]2O[C@H](CO)[C@@H](O)[C@@H]2O)c(=O)n1 [Cytarabine] + CC(C)C[C@H](NC(=O)[C@H](Cc1ccccc1)NC(=O)c1cnccn1)B(O)O [Bortezomib] (partner 0.002 µM)
- relative viability (NCI-H2228; first compound 0.005 µM): 0.791
- relative viability (NCI-H2228; first compound 0.01581 µM): 0.441
- relative viability (NCI-H2228; first compound 0.05 µM): 0.437
- relative viability (NCI-H2228; first compound 0.1581 µM): 0.197
- relative viability (NCI-H2228; first compound 0.5 µM): 0.156
- relative viability (UMC-11; first compound 0.005 µM): 0.339
- relative viability (UMC-11; first compound 0.01581 µM): 0.381
- relative viability (UMC-11; first compound 0.05 µM): 0.341
- relative viability (UMC-11; first compound 0.1581 µM): 0.155
- relative viability (UMC-11; first compound 0.5 µM): 0.155
- relative viability (LC-2-ad; first compound 0.005 µM): 1.01
- relative viability (LC-2-ad; first compound 0.01581 µM): 0.888
- relative viability (LC-2-ad; first compound 0.05 µM): 0.954
- relative viability (LC-2-ad; first compound 0.1581 µM): 0.434
- relative viability (LC-2-ad; first compound 0.5 µM): 0.145
- relative viability (ABC-1; first compound 0.005 µM): 0.307
- relative viability (ABC-1; first compound 0.01581 µM): 0.345
- relative viability (ABC-1; first compound 0.05 µM): 0.285
- relative viability (ABC-1; first compound 0.1581 µM): 0.233
- relative viability (ABC-1; first compound 0.5 µM): 0.29
- relative viability (NCI-H1755; first compound 0.005 µM): 0.922
- relative viability (NCI-H1755; first compound 0.01581 µM): 0.88
- relative viability (NCI-H1755; first compound 0.05 µM): 0.663
- relative viability (NCI-H1755; first compound 0.1581 µM): 0.282
- relative viability (NCI-H1755; first compound 0.5 µM): 0.294
- relative viability (NCI-H1651; first compound 0.005 µM): 1.09
- relative viability (NCI-H1651; first compound 0.01581 µM): 0.916
- relative viability (NCI-H1651; first compound 0.05 µM): 0.808
- relative viability (NCI-H1651; first compound 0.1581 µM): 0.7
- relative viability (NCI-H1651; first compound 0.5 µM): 0.663
- relative viability (NCI-H3122; first compound 0.005 µM): 0.932
- relative viability (NCI-H3122; first compound 0.01581 µM): 0.96
- relative viability (NCI-H3122; first compound 0.05 µM): 0.856
- relative viability (NCI-H3122; first compound 0.1581 µM): 0.676
- relative viability (NCI-H3122; first compound 0.5 µM): 0.614
- relative viability (LU99A; first compound 0.005 µM): 1.14
- relative viability (LU99A; first compound 0.01581 µM): 1.24
- relative viability (LU99A; first compound 0.05 µM): 1.26
- relative viability (LU99A; first compound 0.1581 µM): 1.01
- relative viability (LU99A; first compound 0.5 µM): 1.03
- relative viability (CAL-12T; first compound 0.005 µM): 0.933
- relative viability (CAL-12T; first compound 0.01581 µM): 0.715
- relative viability (CAL-12T; first compound 0.05 µM): 0.948
- relative viability (CAL-12T; first compound 0.1581 µM): 0.379
- relative viability (CAL-12T; first compound 0.5 µM): 0.267
- relative viability (NCI-H2405; first compound 0.005 µM): 0.911
- relative viability (NCI-H2405; first compound 0.01581 µM): 0.694
- relative viability (NCI-H2405; first compound 0.05 µM): 0.662
- relative viability (NCI-H2405; first compound 0.1581 µM): 0.943
- relative viability (NCI-H2405; first compound 0.5 µM): 1.03
- relative viability (NCI-H2087; first compound 0.005 µM): 0.631
- relative viability (NCI-H2087; first compound 0.01581 µM): 1.01
- relative viability (NCI-H2087; first compound 0.05 µM): 0.84
- relative viability (NCI-H2087; first compound 0.1581 µM): 0.573
- relative viability (NCI-H2087; first compound 0.5 µM): 0.338
- relative viability (ChaGo-K-1; first compound 0.005 µM): 0.707
- relative viability (ChaGo-K-1; first compound 0.01581 µM): 0.559
- relative viability (ChaGo-K-1; first compound 0.05 µM): 0.443
- relative viability (ChaGo-K-1; first compound 0.1581 µM): 0.437
- relative viability (ChaGo-K-1; first compound 0.5 µM): 0.499
- relative viability (RERF-LC-KJ; first compound 0.005 µM): 1.01
- relative viability (RERF-LC-KJ; first compound 0.01581 µM): 0.91
- relative viability (RERF-LC-KJ; first compound 0.05 µM): 0.974
- relative viability (RERF-LC-KJ; first compound 0.1581 µM): 0.68
- relative viability (RERF-LC-KJ; first compound 0.5 µM): 0.472
- relative viability (NCI-H460; first compound 0.005 µM): 0.677
- relative viability (NCI-H460; first compound 0.01581 µM): 0.968
- relative viability (NCI-H460; first compound 0.05 µM): 0.265
- relative viability (NCI-H460; first compound 0.1581 µM): 0.028
- relative viability (NCI-H460; first compound 0.5 µM): 0.0192
- relative viability (HCC-78; first compound 0.005 µM): 0.569
- relative viability (HCC-78; first compound 0.01581 µM): 0.444
- relative viability (HCC-78; first compound 0.05 µM): 0.445
- relative viability (HCC-78; first compound 0.1581 µM): 0.378
- relative viability (HCC-78; first compound 0.5 µM): 0.252
- relative viability (PC-3 [JPC-3]; first compound 0.005 µM): 0.811
- relative viability (PC-3 [JPC-3]; first compound 0.01581 µM): 0.795
- relative viability (PC-3 [JPC-3]; first compound 0.05 µM): 0.779
- relative viability (PC-3 [JPC-3]; first compound 0.1581 µM): 0.503
- relative viability (PC-3 [JPC-3]; first compound 0.5 µM): 0.511
- relative viability (LOU-NH91; first compound 0.005 µM): 0.406
- relative viability (LOU-NH91; first compound 0.01581 µM): 0.47
- relative viability (LOU-NH91; first compound 0.05 µM): 0.388
- relative viability (LOU-NH91; first compound 0.1581 µM): 0.338
- relative viability (LOU-NH91; first compound 0.5 µM): 0.357
- relative viability (HCC-366; first compound 0.005 µM): 1.16
- relative viability (HCC-366; first compound 0.01581 µM): 0.911
- relative viability (HCC-366; first compound 0.05 µM): 0.479
- relative viability (HCC-366; first compound 0.1581 µM): 0.0971
- relative viability (HCC-366; first compound 0.5 µM): 0.036
